In US6362134B1, “Herbicidal 1,2,4,6-thiatriazines” (Syngenta Investment Corporation, priority 1996, dated 2002):

Key:
Avena = test: Herbicidal action before emergence of the plants (pre-emergent action); assay type: in vivo; settings: 2000 g of active substance/ha, sprayed immediately after sowing, evaluated after 3 weeks, ratings scale of nine levels (1=complete damage, 9=no action)
Procedure: (§1) Monocotyledon and dicotyledon test plants are sown in standard soil in plastic pots. Immediately after sowing, the test substances are sprayed on (500 l of water/ha) in an aqueous suspension prepared from a 25% wettable powder (Example F3, b)), corresponding to a dosage of 2000 g of active substance/ha. The test plants are then grown under optimum conditions in a greenhouse. After a test period of 3 weeks, the test is evaluated with a ratings scale of nine levels (1=complete damage, 9=no action). Ratings of 1 to 4 (in particular 1 to 3) mean a good to very good herbicidal action.
(§2) Test plants: Avena, Setaria, Sinapis, Stellaria

Stellaria [1] = test: Post-emergent herbicidal action (contact herbicide); assay type: in vivo; set-up: key: 1=complete damage; 9=no action; Ratings of 1 to 4 (in particular 1 to 3) mean a good to very good herbicidal action; settings: 2000 g of active substance/ha, sprayed in the 4- to 6-leaf stage, evaluated after about 18 days, ratings scale 1-9
Procedure: (§3) Monocotyledon and dicotyledon test plants are grown in plastic pots with standard soil in a greenhouse and, in the 4- to 6-leaf stage, are sprayed with an aqueous suspension of the test substances of the formula 1, prepared from a 25% wettable power (Example F3, b)), corresponding to a dosage of 2000 g of active substance/ha (500 l of water/ha). The test plants are then grown further in the greenhouse under optimum conditions. After a test period of about 18 days, the test is evaluated with a ratings scale of 9 levels (1=complete damage, 9=no action). Ratings of 1 to 4 (in particular 1 to 3) mean a good to very good herbicidal action.
(§4) Test plants: Sinapis, Stellaria

Sinapis [2] = test: as above; assay type: in vivo; set-up: key: 1=complete damage; 9=no action; Ratings of 1 to 4 (in particular 1 to 3) mean a good to very good herbicidal action; settings: 2000 g of active substance/ha, sprayed in the 4- to 6-leaf stage, evaluated after about 18 days, ratings scale 1-9
Procedure: as §3, §4

Stellaria [3] = test: Herbicidal action before emergence of the plants (pre-emergent action); assay type: in vivo; set-up: key: 1=complete damage; 9=no action; Ratings of 1 to 4 (in particular 1 to 3) mean a good to very good herbicidal action; settings: 2000 g of active substance/ha, sprayed immediately after sowing, evaluated after 3 weeks, ratings scale of nine levels
Procedure: as §1, §2

Sinapis [4] = test: as above; assay type: in vivo; set-up: key: 1=complete damage; 9=no action; Ratings of 1 to 4 (in particular 1 to 3) mean a good to very good herbicidal action; settings: 2000 g of active substance/ha, sprayed immediately after sowing, evaluated after 3 weeks, ratings scale of nine levels
Procedure: as §1, §2

Setaria = test: as above; assay type: in vivo; set-up: key: 1=complete damage; 9=no action; Ratings of 1 to 4 (in particular 1 to 3) mean a good to very good herbicidal action; settings: 2000 g of active substance/ha, sprayed immediately after sowing, evaluated after 3 weeks, ratings scale of nine levels
Procedure: as §1, §2

[5] = Stability of the isolated compound when left to stand; assay type: physicochemical; settings: isolated product
Procedure: 4.09 g (0.02 mol) of 1,3,5-trichlorothiatriazine are stirred as a suspension in 50 ml of carbon tetrachloride at −25° C., and a solution of 0.70 g (0.022 mol) of methanol in a little carbon tetrachloride is added dropwise. During this operation, the trichlorothiatriazine dissolves apart from a little insoluble product. The mixture is then warmed to 0° C. and filtered and the filtrate is concentrated on a rotary evaporator at a maximum of 50° C. 3.25 g of the desired product, which, according to the ^13C-NMR spectrum and thin layer chromatogram (silica gel; eluting agent ethyl acetate/hexane 1/3), contains practically no further impurities, are obtained as the residue.

Row | melting point | Compound | Pre-emergent action, rating, Avena (Avena) | Post-emergent action, rating, Stellaria (Stellaria [1]) | Post-emergent action, rating, Sinapis (Sinapis [2]) | Pre-emergent action, rating, Stellaria (Stellaria [3]) | Pre-emergent action, rating, Sinapis (Sinapis [4]) | Pre-emergent action, rating, Setaria (Setaria) | stability when left to stand [5]
1 | – | NC1=NS(N2CCCCCCCC2)=NC(Oc2c(F)c(F)c(F)c(F)c2F)=N1 (stereo not shown) [6.257] | 3 | 2 | 2 | 1 | 1 | 2 | –
2 | – | CC1CC2CCCCC2N1S1=NC(N)=NC(Oc2c(F)c(F)c(F)c(F)c2F)=N1 (stereo not shown) [6.282] | 4 | 5 | 1 | 1 | 1 | 2 | –
3 | – | CC1CCN(S2=NC(N)=NC(Oc3c(F)c(F)c(F)c(F)c3F)=N2)C2CCCCC12 (stereo not shown) [6.285] | 5 | 3 | 2 | 1 | 1 | 2 | –
4 | – | CC1CC2CCCCC2N(S2=NC(N)=NC(Oc3c(F)c(F)c(F)c(F)c3F)=N2)C1 (stereo not shown) [6.292] | 5 | 3 | 2 | 1 | 1 | 1 | –
5 | – | CC1CN(S2=NC(N)=NC(Oc3c(F)c(F)c(F)c(F)c3F)=N2)C2CCCCC12 (stereo not shown) [6.295] | 3 | 3 | 1 | 1 | 1 | 1 | –
6 | – | CC1CCC2C(CCN2S2=NC(N)=NC(Oc3c(F)c(F)c(F)c(F)c3F)=N2)C1 (stereo not shown) [6.298] | 3 | 4 | 1 | 1 | 1 | 2 | –
7 | – | NC1=NS(N2CCCCCCCC2)=NC(Oc2c(F)c(F)cc(F)c2F)=N1 (stereo not shown) [6.302] | 3 | 3 | 2 | 1 | 1 | 2 | –
8 | – | COS1=NC(Cl)=NC(Cl)=N1 (stereo not shown) [Example H3, 1-methoxy-3,5-dichlorothiatriazine] | – | – | – | – | – | – | unstable and decomposes within a few hours when left to stand
9 | 75 to 76 °C | COC1=NS(OC)=NC(Oc2cc(F)ccc2F)=N1 (stereo not shown) [Example H10, 1,3-dimethoxy-5-(2′,5′-di-fluorophenoxy)thiatriazine] | – | – | – | – | – | – | –
10 | 163 to 164 °C | CC(C)OS1=NC(N)=NC(Oc2cc(F)ccc2F)=N1 (stereo not shown) [Example H14, 3-amino-1-isopropoxy-5-(2′,5′-difluorophenoxy)thiatriazine] | – | – | – | – | – | – | –
11 | 184 to 185 °C | CCCN(CCC)S1=NC(N)=NC(Oc2cc(F)ccc2F)=N1 (stereo not shown) [Example H17, 3-amino-1-dipropylamino-5-(2′,5′-difluorophenoxy)thiatriazine] | – | – | – | – | – | – | –
